Results as given in patent publication US10683260B2, “Crystalline form of sacubitril sodium salt” (NORATECH PHARMACEUTICALS, INC., priority 2016, dated 2020).

Tests used:
[1] = Determination of the hygroscopicity (water absorption in artificial climate chamber); assay type: physicochemical; settings: for Water absorption, %: open weighing bottle, 25±1° C., relative humidity 43.5±2%; for water content: open container, 25° C., relative humidity 43.5%, 3 hours
Protocol: 1. Take a dry stuffed glass weighing bottle (outer diameter 50 mm, height 15 mm) in the artificial climate chamber (set temperature is 25±1° C., relative humidity is 43.5±2%) and weight it (m1).
2. Take the appropriate amount of the crystalline form in the present invention, and place it in the abovementioned weighing bottle and lay it inside the weighing bottle. The thickness of the test sample is generally about 1 mm. Weight the sample (m2).
3. Uncover the weighing bottle and place it with the bottle cap under constant temperature and humidity (set temperature is 25±1° C., relative humidity is 43.5±2%).
4. Put the cap back on the weighing bottle before weighing, and then weight it (m3). The water absorption percentage for each time point is calculated by the formula=(m3−m2)/(m2−m1)×100%.

[2] = free acid; background statement; cited from earlier work
[3] = biological target: T1, AT1 receptor (Homo sapiens, UniProt P30556); settings: AT1 versus AT2 receptor; background statement; cited from earlier work
T1 sequence (P30556 1-359): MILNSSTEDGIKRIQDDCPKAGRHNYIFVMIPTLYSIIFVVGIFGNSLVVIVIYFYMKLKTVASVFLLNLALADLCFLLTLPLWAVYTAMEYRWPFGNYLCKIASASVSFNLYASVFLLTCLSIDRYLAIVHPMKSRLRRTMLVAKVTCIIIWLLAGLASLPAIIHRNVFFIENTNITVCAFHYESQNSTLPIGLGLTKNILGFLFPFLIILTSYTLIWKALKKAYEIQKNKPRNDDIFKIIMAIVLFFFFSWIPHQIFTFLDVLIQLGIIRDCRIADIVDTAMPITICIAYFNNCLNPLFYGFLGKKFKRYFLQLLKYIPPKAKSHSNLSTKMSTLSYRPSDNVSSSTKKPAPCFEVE

CCOC(=O)[C@H](C)C[C@@H](Cc1ccc(-c2ccccc2)cc1)NC(=O)CCC(=O)[O-].[Na+] [A]
Water absorption, % ([1]; 1.5 h): 0.6%
Water absorption, % ([1]; 3 h): 1.4%
water content ([1]; listed as crystalline form A): 1.4%

CCOC(=O)[C@H](C)C[C@@H](Cc1ccc(-c2ccccc2)cc1)NC(=O)CCC(=O)[O-].[Na+] [B]
Water absorption, % ([1]; 1.5 h): 0.5%
Water absorption, % ([1]; 3 h): 1.0%

CCOC(=O)[C@H](C)C[C@@H](Cc1ccc(-c2ccccc2)cc1)NC(=O)CCC(=O)[O-].[Na+] [C]
Water absorption, % ([1]; 1.5 h): 1.2%
Water absorption, % ([1]; 3 h): 2.4%
water content ([1]; listed as crystalline form C): 2.4%

CCOC(=O)[C@H](C)C[C@@H](Cc1ccc(-c2ccccc2)cc1)NC(=O)CCC(=O)[O-].[Na+] [D]
Water absorption, % ([1]; 1.5 h): 1.5%
Water absorption, % ([1]; 3 h): 3.2%

CCOC(=O)[C@H](C)C[C@@H](Cc1ccc(-c2ccccc2)cc1)NC(=O)CCC(=O)[O-].[Na+] [E]
Water absorption, % ([1]; 1.5 h): 2.4%
Water absorption, % ([1]; 3 h): 4.3%

CCOC(=O)[C@H](C)C[C@@H](Cc1ccc(-c2ccccc2)cc1)NC(=O)CCC(=O)[O-].[Na+] [sacubitril sodium salt X, reference compound]
Water absorption, % ([1]; 1.5 h): 8.3%
Water absorption, % ([1]; 3 h): 11.0%
hygroscopicity (in words) ([1]; solid form, no conditions stated): great hygroscopicity

CCOC(=O)[C@H](C)C[C@@H](Cc1ccc(-c2ccccc2)cc1)NC(=O)CCC(=O)O [sacubitril, 4-{[(2S,4R)-1-([1,1′-biphenyl]-4-yl)-5-ethoxy-4-methyl-5-oxopentan-2-yl]amino}-4-oxobutanoic acid]
water solubility (in words) [2]: poor water solubility

AngII
affinity for the AT1 receptor relative to the AT2 receptor [3]: 300 times
